Measured values taken from US7459444B2, “Inhibitors of chymase” (Janssen Pharmaceutica N.V., priority 2004, dated 2008).

Key:
[1] = Pharmacokinetic assay for evaluation of oral absorption potential; assay type: in vivo; details: male Sprague Dawley rats, oral gavage 15 mg/kg in 20% hydroxy-beta-cyclo dextran, plasma, N = 2; for Cmax at 2 h: rat
Procedure: Male Sprague Dawley rats, weighing 250-300 g, were fasted overnight then dosed by oral gavage at a level of 15 mg/kg with a compound. Compounds were formulated in 20% hydroxy-beta-cyclo dextran.
Blood samples (0.5 mL) were collected into lithium heparinized tubes at 0.5, 1.0 and 2.0 h post dose via orbital sinus puncture. Blood samples were centrifuged at 2000 rpm for ˜3 min for cell removal, approximately 200 μL of plasma supernatant was then transferred to a clean vial, frozen then placed on dry ice and delivered to SFBC Analytical Labs, Inc. for analysis.
Plasma samples were prepared as follows. Two hundred microliters of acetonitrile containing 1 μM internal standard was added to 100 μL of plasma to precipitate proteins. Samples were centrifuged at 5000 g for 5 min and supernatant removed for analysis by LC-MS. Two hundred microliters of water was added to adjust sample solvent strength and prevent peak splitting. Calibration standards were prepared by adding appropriate volumes of stock solution directly into plasma and treated identically to collected plasma samples. Calibration standards were prepared in the range of 0.1 to 10 μM for quantitation. LC-MS analysis was performed using MRM (Multiple Reaction Monitoring) detection of characteristic ions for each drug candidate and internal standard.

angiotensin II activity = details: human vascular extracts; cited from earlier work
[2] = test system: Ascaris suum antigen-induced asthmatic response in conscious sheep; assay: Ascaris suum antigen-induced asthmatic response in conscious sheep; assay type: in vivo; details: for early airway response (0-2 h after antigen challenge) / late airway response (6-8 h after antigen challenge): n=2 sheep/group
Procedure: The efficacy of Compound 17 for the treatment of asthma was evaluated in a validated model of Ascaris suum antigen-induced asthmatic response in conscious sheep (Abraham, W. M., Pharmacology of allergen-induced early and late airway responses and antigen-induced airway hyperresponsiveness in allergic sheep, Pulmonary Pharmacology, 1989, 2, 33-40).
Baseline (BSL) dose response curves to aerosol carbachol were obtained from historical control responses prior to antigen challenge. Baseline values of specific lung resistance (SRL) were obtained and the sheep were then given a specified amount (mg) of the test compound as an inhaled aerosol or as a oral dose at a specified time before antigen challenge. Post-drug measurements of SRL were obtained and the sheep were then challenged with Ascaris suum antigen. Measurements of SRL were obtained immediately after challenge, hourly from 1-6 h after challenge and on the half-hour from 6½-8 h after challenge. Measurements of SRL were obtained 24 h after challenge followed by a 24 h post-challenge with carbachol to measure airway hyperreactivity.
Compound 17 was administered as an aerosol at 4.5 mg/dose (ca. 0.1 mg/Kg/dose, based on a 45 Kg sheep), twice-a-day (BID) for three consecutive days, followed by a dose on day 4, 0.5 h prior to antigen challenge. Ascaris suum antigen challenge was given at the zero time point.
Compound 17 was administered as an oral solution at 15 mg/Kg/dose, twice-a-day (BID) for three consecutive days, followed by a dose on day 4, 2 h prior to antigen challenge. Ascaris suum antigen challenge was given at the zero time point.

human skin chymase = molecular target: T1, human skin chymase (Homo sapiens, UniProt P23946); assay: Enzyme-catalyzed hydrolysis assay (chymase inhibition); assay type: biochemical; details: 10 nM enzyme, 0.7 mM Suc-Ala-Ala-Pro-Phe-pNa, pH 8.0, 37° C., 30 minutes
T1 construct: using human skin chymase (Cortex Biochem); purchased Cortex Biochem
T1 sequence (P23946 22-247): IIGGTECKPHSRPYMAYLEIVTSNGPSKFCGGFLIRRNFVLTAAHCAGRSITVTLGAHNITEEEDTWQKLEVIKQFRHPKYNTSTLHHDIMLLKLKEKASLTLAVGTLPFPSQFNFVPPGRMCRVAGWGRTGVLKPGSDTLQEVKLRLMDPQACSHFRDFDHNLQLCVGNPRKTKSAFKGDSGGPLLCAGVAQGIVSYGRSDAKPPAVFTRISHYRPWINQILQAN

[3] = aerosol 4.5 mg/dose BID for three days plus dose on day 4, 0.5 h prior to antigen challenge, FIG. 1
[4] = oral solution 15 mg/Kg/dose BID for three days plus dose on day 4, 2 h prior to antigen challenge, FIG. 3

Row | SMILES | IC50 (human skin chymase) [µM] | also measured
1 | CP(=O)(OCCN)C(C(=O)NC=Cc1ccc(F)c(F)c1)c1csc2ccc(Cl)cc12 (stereo not shown) [Cpd 184, {(5-Chloro-benzo[b]thiophen-3-yl)-[2-(3,4-difluoro-phenyl)-vinylcarbamoyl]-methyl}-methyl-phosphinic acid 2-amino-ethyl ester] | – | Cmax at 2 h [1]: 0.1 ± 0.05 µM
2 | NCCCC[C@H](N[C@@H](CCc1ccccc1)C(=O)O)C(=O)N1CCC[C@H]1C(=O)O [lisinopril] | – | angiotensin II activity inhibited (angiotensin II activity): about 8%
3 | CC(C)(C)C(=O)OCOP(=O)(OCOC(=O)C(C)(C)C)C(C(=O)N/C=C/c1ccc(F)c(F)c1)c1csc2ccc(Cl)cc12 (stereo not shown) [Cpd 186, 2,2-Dimethyl-propionic acid {(5-chloro-benzo[b]thiophen-3-yl)-[2-(3,4-difluoro-phenyl)-vinylcarbamoyl]-methyl}-(2,2-dimethyl-propionyloxymethoxy)-phosphinoyloxymethyl ester] | – | Cmax at 2 h [1]: 20.1 ± 3.5 µM
4 | CCN(CC)C(=O)COP(=O)(OCC(=O)N(CC)CC)C(C(=O)N/C=C/c1ccccc1)c1cccc2ccccc12 (stereo not shown) [Cpd 180, (Naphthalen-1-yl-styrylcarbamoyl-methyl)-phosphonic acid didiethylcarbamoylmethyl ester] | – | Cmax at 2 h [1]: < 0.1 µM
5 | CC(C)(C)C(=O)OCOP(C)(=O)C(C(=O)N/C=C/c1ccc(F)c(F)c1)c1csc2ccc(Cl)cc12 (stereo not shown) [Cpd 182] | – | Cmax at 2 h [1]: 11.8 ± 3.26 µM
6 | CP(=O)(O)C(C(=O)N/C=C/c1ccc(F)c(F)c1)c1csc2ccc(Cl)cc12 (stereo not shown) [Cpd 17] | – | early airway response (0-2 h after antigen challenge) [2, 3]: unchanged; late airway response (6-8 h after antigen challenge) [2, 3]: completely blocked; delayed airway hyperreactivity at 24 h post antigen challenge (carbachol challenge) ([2]; aerosol administration, FIG. 2): completely blocked; delayed airway hyperreactivity at 24 h post antigen challenge (carbachol challenge) ([2]; oral administration, FIG. 4): completely blocked; early airway response (0-2 h after antigen challenge) [2, 4]: unchanged; late airway response (6-8 h after antigen challenge) [2, 4]: completely blocked
7 | CC(C)(C)C(=O)OCOP(=O)(O)C(C(=O)N/C=C/c1ccccc1)c1cccc2ccccc12 (stereo not shown) [Cpd 177] | – | Cmax at 2 h [1]: 2 ± 1.1 µM
8 | CC(C)(C)C(=O)OCOP(=O)(O)C(C(=O)N/C=C/c1ccc(F)c(F)c1)c1csc2ccc(Cl)cc12 (stereo not shown) [Cpd 187, 2,2-Dimethyl-propionic acid {(5-chloro-benzo[b]thiophen-3-yl)-[2-(3,4-difluoro-phenyl)-vinylcarbamoyl]-methyl}-hydroxy-phosphinoyloxymethyl ester] | – | Cmax at 2 h [1]: 21.4 ± 11 µM
9 | O=C(N/C=C/c1ccc(F)c(F)c1)C(c1csc2ccc(Cl)cc12)P1(=O)OCCCO1 (stereo not shown) [Cpd 189, 2-(5-Chloro-benzo[b]thiophen-3-yl)-N-[2-(3,4-difluoro-phenyl)-vinyl]-2-(2-oxo-2,5-[1,3,2]dioxaphosphinan-2-yl)-acetamide] | – | Cmax at 2 h [1]: 21.1 ± 2.3 µM
10 | CCN(CC)C(=O)COP(C)(=O)C(C(=O)NC=Cc1ccc(F)c(F)c1)c1csc2ccc(Cl)cc12 (stereo not shown) [Cpd 185, {(5-Chloro-benzo[b]thiophen-3-yl)-[2-(3,4-difluoro-phenyl)-vinylcarbamoyl]-methyl}-methyl-phosphinic acid diethylcarbamoylmethyl ester] | – | Cmax at 2 h [1]: 2.1 ± 0.23 µM
11 | Cn1cc(C(C(=O)Nc2ccc3ccccc3c2)P(=O)(O)O)c2cc(F)ccc21 (stereo not shown) [Cpd 11] | 0.037 ± 0.01 | –
12 | CP(=O)(O)C(C(=O)N/C=C/c1ccccc1O)c1csc2ccc(Cl)cc12 (stereo not shown) [Cpd 149, {(5-Chloro-benzo[b]thiophen-3-yl)-[2-(2-hydroxy-phenyl)-vinylcarbamoyl]-methyl}-methyl-phosphinic acid] | 0.043 | –
13 | CP(=O)(O)C(C(=O)N/C=C/c1cccc(F)c1)c1csc2ccc(Cl)cc12 (stereo not shown) [Cpd 15] | 0.052 ± 0.015 | –
14 | CN(CCCC1c2ccccc2C=Cc2ccccc21)Cc1cc2ccccc2cc1NC(=O)C(c1cccc2ccccc12)P(=O)(O)O (stereo not shown) [Cpd 112] | 4.74 ± 1.65 | –
15 | O=C(Nc1ccc2sccc2c1)C(c1csc2ccc(Cl)cc12)P(=O)(O)O (stereo not shown) [Cpd 55] | 0.52 ± 0.51 | –
16 | O=C(NC=Cc1ccccc1)C(c1cccc2ccccc12)P1(=O)OCCCO1 (stereo not shown) [Cpd 178, 2-Naphthalen-1-yl-2-(2-oxo-2l5-[1,3,2]dioxaphosphinan-2-yl)-N-styryl-acetamide] | – | Cmax ([1]; read-out: CMax (μM) @ 2 h): 4.1 ± 0.28 µM
17 | CP(=O)(O)C(C(=O)N/C=C/c1ccccc1Br)c1csc2ccc(Cl)cc12 (stereo not shown) [Cpd 164] | 0.1 ± 0.02 | –
18 | CP(=O)(O)C(C(=O)N/C=C/c1cccc(N)c1)c1csc2ccc(Cl)cc12 (stereo not shown) [Cpd 172] | 0.041 ± 0.02 | –
19 | COc1cccc(/C=C/NC(=O)C(c2csc3ccc(Cl)cc23)P(C)(=O)O)c1 (stereo not shown) [Cpd 154] | 0.036 ± 0.05 | –
20 | COc1ccccc1/C=C/NC(=O)C(c1csc2ccc(Cl)cc12)P(C)(=O)O (stereo not shown) [Cpd 145] | 0.035 ± 0.02 | –
21 | O=C(Nc1ccc2ccccc2c1)C(C1=CS(=O)(=O)c2ccc(Cl)cc21)P(=O)(O)O (stereo not shown) [Cpd 86, [(5-Chloro-1,1-dioxo-1H-1λ^6-benzo[b]thiophen-3-yl)-(naphthalen-2-ylcarbamoyl)-methyl]-phosphonic acid] | 1.9 ± 0.4 | –
22 | CP(=O)(O)C(C(=O)N/C=C/c1cccc([N+](=O)[O-])c1)c1csc2ccc(Cl)cc12 (stereo not shown) [Cpd 166] | 0.0387 ± 0.02 | –

Continued, in another order:

Row | IC50 (human skin chymase) [µM] | SMILES | also measured
23 | 4.3 ± 0.03 | O=C(Nc1cc2ccccc2cc1CNCc1ccccc1)C(c1cccc2ccccc12)P(=O)(O)O (stereo not shown) [Cpd 107] | –
24 | 7.68 | O=C(Nc1cc2ccccc2cc1C(=O)N1CCCC1c1ccccc1)C(c1cccc2ccccc12)P(=O)(O)O (stereo not shown) [Cpd 131] | –
25 | 1.39 ± 0.554 | COc1ccc2c(c1)c(C(C(=O)Nc1ccc3ccccc3c1)P(=O)(O)O)cn2C (stereo not shown) [Cpd 74] | –
26 | 0.48 ± 0.18 | Cn1cc(C(C(=O)Nc2ccc3ccccc3c2)P(=O)(O)O)c2ccc(Cl)cc21 (stereo not shown) [Cpd 52] | –
27 | 2.04 | O=C(Nc1cc2ccccc2cc1C(=O)N1CCC(c2ccccc2)C1)C(c1cccc2ccccc12)P(=O)(O)O (stereo not shown) [Cpd 87] | –
28 | 0.21 ± 0.01 | CP(=O)(O)C(C(=O)Nc1ccc2ccccc2c1)c1c(C(=O)N2CCC(c3ccccc3)CC2)sc2ccccc12 (stereo not shown) [Cpd 32, Methyl-{(naphthalen-2-ylcarbamoyl)-[2-(4-phenyl-piperidine-1-carbonyl)-benzo[b]thiophen-3-yl]-methyl}-phosphinic acid] | –
29 | 1 ± 0.3 | O=C(Nc1ccc2ccccc2c1)C(c1csc2ccc(-c3ccccc3)cc12)P(=O)(O)O (stereo not shown) [Cpd 71, [(5-phenyl-benzo[b]thiophen-3-yl)-(naphthalen-2-ylcarbamoyl)-methyl]-phosphonic acid] | –
30 | 1.72 | O=C(Nc1cc2ccccc2cc1C(=O)N1CCC(c2c[nH]c3ccccc23)CC1)C(c1cccc2ccccc12)P(=O)(O)O (stereo not shown) [Cpd 83] | –
31 | 3.12 | O=C(Nc1cc2ccccc2cc1C(=O)N1CCC(c2ccccc2)CC1)C(c1cccc2ccccc12)P(=O)(O)O (stereo not shown) [Cpd 101] | –
32 | 0.235 ± 0.045 | COc1ccc(C2CCN(C(=O)c3sc4ccccc4c3C(C(=O)Nc3ccc4ccccc4c3)P(C)(=O)O)CC2)cc1 (stereo not shown) [Cpd 35] | –
